From patent US11253486B2, “Bakuchiol compositions for treatment of post inflammatory hyperpigmentation” (Unigen, Inc., priority 2011, dated 2022)

Key:
[1] = Percutaneous absorption ex-vivo test; assay type: in vitro ADME, human; conditions: 0.5% formulation concentration, single application, over 48 hours
Description: The partition coefficient of a chemical compound provides a thermodynamic measure of its hydrophilicity/lipophilicity balance and thus its potential bioavailability. […] The skin penetration of the active compound—bakuchiol in a skin care cream was quantified in an ex-vivo test on isolated human skin. […] In certain embodiments, the disclosed compositions comprise a skin penetration enhancer.
Two natural bakuchiol compositions comprising 86.54% bakuchiol and 77.02% bakuchiol and a combined total of less than 100 ppm psoralen and angelicin (isopsoralen) were formulated in a cosmetic vehicle or complicated skin care cream and tested on in vitro models or in human clinical trials for their safety profile.

mushroom tyrosinase = mushroom tyrosinase (Agaricus bisporus, UniProt C7FF04); test: Tyrosinase inhibition assay (L-DOPA to dopachrome); assay type: biochemical; conditions: eight different dosages; <100 ppm furanocoumarins; FIG. 4
Description: A tyrosinase inhibition assay was carried out using the method reported by Jones et al. (2002) Pigment. […] Using this method, the conversion of L-Dopa, a substrate of tyrosinase, into dopachrome was followed by monitoring absorption at 450 nm. Tyrosinase was prepared in 50 mM potassium phosphate buffer, pH 6.8 (assay buffer) at 2000 U/ml and stored at −20° C. in 1 ml aliquots prior to use. For use in assays, stock enzyme solutions were thawed and diluted to 200 U/ml with assay buffer. A 2 mM working solution of substrate, L-DOPA, was prepared in assay buffer for each assay. Samples were dissolved in 10% DMSO (0.5 ml) and diluted to 5 ml with assay buffer. The reaction mixture comprised 0.050 ml 2 mM L-DOPA, 0.050 ml 200 U/ml mushroom tyrosinase and 0.050 ml inhibitor. Reaction volume was adjusted to 200 μl with assay buffer. Assays were performed in 96 well Falcon 3097 flat-bottom microtiter plates (Beckton Dickinson, N.J.). Appearance of dopachrome was measured with a WALLAC 1420 Multilable Counter (Turku, Finland). Average velocity was determined from linear enzyme rate as measured by change in absorbance (ΔA450) at 450 nm per minute. Percent inhibition of tyrosinase by test samples was determined by comparison of absorbance of samples versus control using formula (1): (Negative control absorption−sample absorption)/Negative control absorption×100 (1)

[2] = system: acne lesions and Post Inflammatory Hyperpigmentation; conditions: OTC drugs, Studies 1-3, 10 or 12 week studies; cited from earlier work
[3] = system: subjects with PIH related to acne; test: Double blind placebo and positive controlled study for PIH related to acne (Example 11); assay type: in vivo, human; conditions: for PIH grade, mean: cream twice a day to the face
Description: The safety and efficacy of a 0.5% (wt/wt) cream of bakuchiol (UP256) was evaluated in a double blind placebo and positive controlled study for the treatment of PIH related to acne. The study evaluated a bakuchiol cream at 0.5% concentration, a 2% Salicylic acid cream and a placebo cream (Vehicle) in an Asian population. The participants were instructed to apply the study creams to the face twice a day (AM/PM). Study participants were given instructions for application and provided with sunscreen.
The study population consisted of male and female subjects older than 18 and younger than 40 years and in generally good health as determined by a medical history. The bakuchiol study arm enrolled 18 subjects, the Salicylic acid (SAL) study arm enrolled 20 subjects, and the placebo study arm enrolled 19 subjects.
The PIH grade is a measure of the severity of the hyperpigmentation (higher number=more severe pigmentation).
Primary Study Objectives: • 1. PIH IGA Time Frame: Baseline and weeks 2, 4 and 8 • 2. PIH % Distribution Time Frame: Baseline and weeks 2, 4 and 8
PIH efficacy was evaluated based on changes from baseline (p<0.05) and over other treatment groups (p<0.05) using t-test or/and ANOVA.
Subject's Assessment questionnaires and Tolerability Assessments were collected at Baseline and weeks 2, 4, and 8. Urine pregnancy tests for females of childbearing potential were collected at Baseline and week 8.
The following data was collected: • 1. Change from baseline in PIH Severity; • 2. Change from baseline in the PIH Grade; and • 3. Change from baseline in the Lesion counts
The data was analyzed from Investigator evaluations at each visit and from photographs taken at the specified time points. The photographs from baseline, week 4, and week 8 were evaluated by a second group of investigators and two independent dermatologists before the study was unblended to further confirm that the population met criteria. The data analyzed is based on confirmed evaluations, there was no photo for week two therefore week two data is not included in the analysis.

[4] = questionnaire and investigator safety evaluation, count

mushroom tyrosinase, sequence (C7FF04 2-392): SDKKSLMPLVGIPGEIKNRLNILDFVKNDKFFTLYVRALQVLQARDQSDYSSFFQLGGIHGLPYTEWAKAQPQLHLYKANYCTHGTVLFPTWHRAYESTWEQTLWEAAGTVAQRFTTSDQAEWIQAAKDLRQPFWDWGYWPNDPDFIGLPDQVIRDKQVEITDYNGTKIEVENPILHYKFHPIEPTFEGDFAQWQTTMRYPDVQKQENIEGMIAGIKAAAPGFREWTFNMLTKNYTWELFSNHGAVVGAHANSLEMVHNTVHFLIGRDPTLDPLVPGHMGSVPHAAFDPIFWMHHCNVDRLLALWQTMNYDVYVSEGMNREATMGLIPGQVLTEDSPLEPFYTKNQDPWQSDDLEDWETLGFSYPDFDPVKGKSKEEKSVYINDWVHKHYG

With `C=CC(C)(/C=C/c1ccc(O)cc1)CCC=C(C)C` (centres unmarked) [bakuchiol] the “skin penetration / percutaneous absorption” value [1] was “good skin penetration and bioavailability” and the tyrosinase inhibition activity (mushroom tyrosinase) was “no tyrosinase inhibition function”.

For `O=C(OOC(=O)c1ccccc1)c1ccccc1` [Benzoyl peroxide (5%), Benzoyl peroxide], the “Improvement of Post Inflammatory Hyperpigmentation” value [2] is listed as 0, the “Mean percent reduction in inflammatory lesion counts” value [2] is listed as 32% and the “Mean percent reduction in non-inflammatory lesion counts” value [2] is listed as 22%. The “Mean percent reduction in total lesion counts” value [2] was 28%.

For `O=C(O)c1ccccc1O` [Salicylic Acid, Salicylic acid], the “Inflammatory acne lesions, mean” value ([3]; Baseline) was 11.2, the “PIH grade, mean” value ([3]; Baseline) was 3.15 and the “Inflammatory acne lesions, mean” value ([3]; Week 4) was 9.25. For the same compound, the “PIH grade, mean” value ([3]; Week 4) was 3.2, the “Inflammatory acne lesions, mean” value ([3]; Week 8) was 8.65 and the “PIH grade, mean” value ([3]; Week 8) was 3.2. For the same compound, the “Subject assessment: Itching/Burning” value [3, 4] was 4 and the “Subject assessment: Skin Discomfort” value [3, 4] was 2.
